Results from patent US8709420B2 (GlaxoSmithKline Intellectual Property Limited, priority 2010, dated 2014).
Converted amounts (≈) assume the structure as drawn. Like-named read-outs stand apart in the source and are kept apart here.

Key:
[1] = system: SH-SY5Y neuroblastoma cell line; test: In-vitro cytotoxicity, Alamar Blue cell viability; assay type: cell-based; details: 72 h
From the text: (§1) SK-N-BE(2) (MYCN amplified) and SH-SY5Y (non-MYCN amplified neuroblastoma cell lines) were obtained from American Type Culture Collection (ATCC) (Manassas, Va.); BE(2)-c sub-clone of SK-N-BE(2) was obtained from Dr. Michelle Haber (Children's Cancer Institute for Medical Research, Lowry Cancer Research Centre, Randwick, Australia); Human Umbilical Vein Endothelial Cells (HUVECs) were obtained from Dr. Herman Yeger (The Hospital for Sick Children, Toronto, Ontario, Canada) and Tumor Initiating (TIC) cell lines NB12 and NB88, were obtained from Dr. David Kaplan (The Hospital for Sick Children, Toronto, Ontario, Canada). TICs NB12 and NB88 were isolated from the bone marrow metastases of relapsed high-risk neuroblastoma patients. Neuroblastoma cell lines SK-N-BE(2) and SH-SY5Y were grown in alpha-MEM containing 10% fetal bovine serum and 1% antibiotic mixture in humidified atmosphere at 37° C. with 5% CO2. NB12 and NB 88 were cultured as described previously.
(§2) Cell viability was determined by Alamar Blue assay. Alamar blue (10% of total volume was added to each well three hours prior to fluorometric detection). Fluorometric detection was performed using the SPECTRAmax gemini Spectrophotometer at excitation wavelength of 540 nm and emission wavelength of 590 nm.

[2] = system: SK-N-BE(2) neuroblastoma cell line; test: In-vitro cytotoxicity, Alamar Blue cell viability; assay type: cell-based; details: for IC50: Homo sapiens, SKNBE2, 72 h
From the text: as §1, §2

[3] = system: SK-N-BE(2) xenograft; test: SK-N-BE(2) neuroblastoma xenograft model; assay type: in vivo, NOD/SCID mice; details: for survival compared to control: daily oral gavage 56 days, TP 1.0 mg/Kg topotecan, PZ 150 mg/Kg pazopanib, TP+PZ both
Protocol: (§3) 1×10^6 SK-N-BE(2) cells or 30,000 NB12 cells were implanted subcutaneously into the inguinal fat pad of each of non-obese diabetic/severe combined immune deficient (NOD/SCID) mice. […] The criteria for end point were tumor sizes exceeding 2.0 cms in diameter or animals showing signs of morbidity. The tumor sizes were measured on a daily basis until the end point or sacrifice. The long (D) and short diameters (d) were measured with calipers. Tumor volume (cm^3) was calculated as V=0.5×D×d^2. When end point was reached, the animals were sacrificed by cervical dislocation. Tumors were excised and were fixed in 10% formalin solution.
In the group of animals implanted with SK-N-BE(2) cells palpable tumors started appearing approximately two weeks after cell implantation and took an additional week to reach 0.5 cm in diameter, after which the treatment was started. The effect of treatment was assessed by measuring regression of tumors and by survival times. Drugs were administered daily over a period of 56 days, and the animals belonging to the TP+PZ group were also retreated from the 103rd day to evaluate the impact of resuming treatment on reversing drug resistance. Retreatment was continued until the 125th day, after which the mice were sacrificed.

[4] = system: NB12 xenograft; test: NB12 TIC xenograft model; assay type: in vivo, NOD/SCID mice; details: for tumor growth compared to control: daily oral gavage, TP 1.0 mg/Kg, PZ 150 mg/Kg, TP+PZ both
Protocol: as §3

[5] = Pharmacokinetics of topotecan and pazopanib in non-tumor bearing animals; assay type: in vivo, mice
Protocol: Non-tumor bearing animals were randomized into four groups (n=3): Control, PZ, TP and TP+PZ. The doses of the drugs were the same as for the inguinal xenograft and metastatic models described above.
After single drug administration, the saphenous vein blood samples (30 μl) were collected in heparinized microcentrifuge tubes at 30 min, 1 h, 2 h, 4 h, 8 h, 12 h, 18 h and 24 h as per the Lab Animal Services protocol. Plasma was immediately isolated after blood collection by centrifugation. For the topotecan assay, 10 μl plasma was immediately precipitated with 20 μl methanol and centrifuged. The supernatant and rest of the plasma were stored at […] until analysis.
30 μl of supernatant was injected into the HPLC system, which consisted of Phenomenox C18 (Luna; 150×4.6 mm; particle size 5 microns) column, UV detector (267 nm). The mobile phase was 50:50 mixture of 10 mM potassium phosphate and methanol, with flow rate 1.0 ml/min. The calibration standards were 5, 10, 50, 100 and 200 μg/ml.
Assay of topotecan: Prior to analysis, the previously prepared 20 μl methanolic extract was mixed with 50 μl of internal standard solution (5 ng/ml d6 topotecan dissolved 1% formic acid in acetonitrile). The mixture was then centrifuged and the supernatant was transferred to auto-sampler vials.
The LC/MS system consisted of an HPLC (Agilent Infinity 1290), Column (Kinetex HILIC, 2.6u, 100A, 50×4.6 mm) and a mass spectrometer (Sciex 5500-QTrap). The analytes were eluted by gradient flow. Mobile phase A was water:actonitrile (10:90) and mobile phase B was 10 mM ammonium acetate (pH 3.2). The mobile phase ratio was 5% A for 0-2 min, 20% A for 4-6 min and 5% A for 8-10 min at a flow rate 0.5 ml/min. The samples were analyzed by positive ion electrospray ionization technique in multiple reaction monitoring modes. The following mass transitions were monitored: 422.2 to 377 m/z, (topotecan M+H) and 428.2 to 377 m/z (topotecan d6 M+H). The calibration standard range was 0.5 ng/ml to 10 ng/ml.

[6] = system: KHOS osteosarcoma cell line; assay type: cell-based
Protocol: (§4) Materials: The cells were cultured at 37° C. in 5% CO2 in a-MEM (Multicell; Wisent, Inc., St. Bruno, Quebec, Canada) with 10% fetal bovine serum (FBS; Life Technologies, Grand Island, N.Y.) and 1% antibiotic mixture, containing 10000 IU penicillin and 10000 μg/ml streptomycin (Multicell; Wisent, Inc., St. Bruno, Quebec, Canada). Trypsin-EDTA, containing 0.05% trypsin and 0.53 mM EDTA was also purchased from Multicell; Wisent, Inc., St. Bruno, Quebec, Canada.
(§5) Procedure: A total of 20,000 cells were plated in each well of 48 well-plates and incubated at 37° C. in 5% CO2. After 48 h, the cells were treated with various concentrations of drugs. After 72 h of treatment, the cell viability was determined by alamar blue assay.

[7] = system: RD rhabdomyosarcoma cell line; assay type: cell-based
Protocol: as §4, §5

[8] = system: Rh30 rhabdomyosarcoma cell line; assay type: cell-based
Protocol: as §4, §5

[9] = system: Rh30 xenograft; test: RH30 rhabdomyosarcoma mouse xenograft model; details: for tumor growth rate: daily oral up to 56 days, pazopanib 150 mg/Kg, LDM topotecan 1.0 mg/kg, combination both
[10] = system: HUVEC; test: In-vitro cytotoxicity, Alamar Blue cell viability; assay type: cell-based; details: Homo sapiens, 72 h treatment, read-out: IC50, reduction in viability of HUVEC cells

In the case of `Cc1ccc(Nc2nccc(N(C)c3ccc4c(C)n(C)nc4c3)n2)cc1S(N)(=O)=O` [pazopanib, 5-[[4-[(2,3-dimethyl-2H-indazol-6-yl)methylamino]-2-pyrimidinyl]amino]-2-methylbenzenesulfonamide], the “viability of SH-SY5Y” value ([1]; up to 5000 ng/ml) is reported as “did not affect the viabilities”, the “viability of SK-N-BE(2)” value ([2]; up to 5000 ng/ml, 72 h) is reported as “did not affect the viabilities” and the “survival compared to control” value [3] is reported as “significantly enhanced survival”. The “tumor growth compared to control” value [4] was “No significant difference”, the “time optimal plasma concentration of pazopanib was maintained” value ([5]; PZ group) was “at least 18 h” and the “time to peak plasma concentration of pazopanib” value ([5]; PZ group, single oral 150 mg/Kg pazopanib) was 2 h. The “time optimal plasma concentration of pazopanib was maintained” value ([5]; TP+PZ group) was “at least 18 h”, the “time to peak plasma concentration of pazopanib” value ([5]; TP+PZ group, single oral 150 mg/Kg pazopanib+1.0 mg/Kg topotecan) was 2 h and the “cell viability / cytotoxicity” value [6] was “did not show cytotoxicity”. The “cell viability / cytotoxicity” value [7] was “did not show cytotoxicity”, the “cell viability / cytotoxicity” value [8] was “did not show cytotoxicity” and the tumor growth rate [9] was “delayed the tumor growth rate”.

With `CC[C@@]1(O)C(=O)OCc2c1cc1n(c2=O)Cc2cc3c(CN(C)C)c(O)ccc3nc2-1` [topotecan] the IC50 [10] was 0.00487 µg/mL (≈ 0.0116 µM), the IC50 ([1]; Homo sapiens, SH-SY5Y, topotecan alone) was 0.0053 µg/mL (≈ 0.0126 µM) and the IC50 ([2]; topotecan alone) was 0.065 µg/mL (≈ 0.154 µM). For the same compound, the IC50 ([2]; topotecan with addition of 5000 ng/ml pazopanib, P=0.046) was 0.0351 µg/mL (≈ 0.0833 µM), the “tumor growth rate, TP versus PZ group” value ([3]; TP 1.0 mg/Kg vs PZ 150 mg/Kg, daily oral) was “No significant difference” and the “survival compared to control” value [3] was “significantly enhanced survival”. For the same compound, the “survival compared to control and PZ groups” value ([4]; daily oral gavage until day 83, P<0.005) was “significantly enhanced”, the “tumor growth compared to control” value [4] was “significantly reduced” and the “trough concentration of topotecan” value ([5]; TP group) was 0.77 ng/mL. The “peak plasma concentration of topotecan” value ([5]; TP group, single oral 1.0 mg/Kg topotecan) was 19.75 ng/mL, the “peak plasma concentration of topotecan” value ([5]; TP+PZ group) was 33.05 ng/mL and the “trough concentration of topotecan” value ([5]; TP+PZ group) was 2.79 ng/mL. For the same compound, the “cell viability / cytotoxicity” value ([6]; 72 h treatment) was “dose-dependent reduction”, the “cell viability / cytotoxicity” value ([7]; 72 h treatment) was “dose-dependent reduction” and the “cell viability / cytotoxicity” value ([8]; 72 h treatment) was “dose-dependent reduction”. The “efficacy relative to PZ, TP+PZ and intermittent dosing” value ([9]; LDM topotecan 1.0 mg/kg daily oral) was “less effective” and the tumor growth rate [9] was “delayed the tumor growth rate”.
